Assay results: publication PMC9841525, “Chemical Blockage of the Mitochondrial Rhomboid Protease PARL by Novel Ketoamide Inhibitors Reveals Its Role in PINK1/Parkin-Dependent Mitophagy” (Journal of Medicinal Chemistry, 2022)
*1 amine or outer side, *2 acyl side, *3 side chain or, on linkers, in order; H or OH if unused. Where a SMILES comes first, the peptide text is derived from it. [ ]: non-standard residue; d: D form. The star is where a group is joined. NH(4-phenylbutyl) = c1ccc(CCCCN*)cc1; X1 = C[C@H](N[*:1])C(=O)C(=O)[*:2]

Tested on: PINK1
Assay: PINK1 processing and stabilization, endogenous PINK1, sodium carbonate fractionation and immunoblot
Type: cell-based, human
Conditions: HEK293T cells, 5 μM, 8 h
Procedure: Inducible stable Flp-In HEK293 T-REx cells expressing PINK1 were described previously.[33] HEK293 T-REx PINK1 and HEK293T cells were grown in DMEM (Gibco) supplemented with 10% (v/v) fetal bovine serum (ThermoFisher), 1% (v/v) GlutaMAX (Gibco), 1% (v/v) sodium pyruvate (Gibco), 125 μg/mL hygromycin (Invitrogen), and 10 μg/mL blasticidin (Gibco) or DMEM supplemented with 10% (v/v) fetal bovine serum, respectively, at 37 °C in 5% (v/v) CO2. For microscopy, cells were seeded on poly-L-lysine (Sigma)-coated slides. Transient plasmid transfections were performed using 25 kDa linear polyethylenimine (Polysciences). Plasmid (100 ng) encoding HA-Parkin-IRES-GFP, mito-mCherry or Parkin-mEGFP, or 500 ng plasmid encoding PGAM5-FLAG were used per 6-well. Total transfected DNA was 2 μg/well. For siRNA transfection, 2 × 10^5 cells were seeded per 6-well and on the next day transfected with 20 nM siRNA-oligonucleotide using lipofectamine RNAiMAX (ThermoFisher). Cells were analyzed 27 h post-transfection or five days post-siRNA-transfection. HEK293 T-REx PINK1 cells were induced with 0.3 μg/mL doxycycline for 24 h before further processing. […] For quantification, ImageJ was used (http://rsb.info.nih.gov/ij/). Immunoblots shown are representative of at least three independent experiments and were evaluated using Excel and GraphPad Prism 9 (GraphPad Software, Inc.).

Question: What does the source list for `CC(=O)N[C@@H](C)C(=O)N[C@H](C(=O)N[C@@H](Cc1ccccc1)C(=O)N[C@@H](CC(C)C)C(=O)N[C@@H](C)C(=O)C(=O)NCCCCc1ccccc1)C(C)C` [compound 5] (Ac-AVFL[X1]-{NH(4-phenylbutyl)})?
Answer: Effect on endogenous PINK1 cleavage and stabilization: endogenous PINK1 remains largely uncleaved and is stabilized in its 66 kDa form; Effect on endogenous PINK1 cleavage and stabilization (listed as Compound 5): inhibits PARL-catalyzed PINK1 cleavage under endogenous expression levels
